Source: patent US5554653A, “Inhibitors of HIV protease useful for the treatment of AIDS” (Eli Lilly and Company, priority 1992, dated 1996)

Biological target: T1, HIV-1 protease (Human immunodeficiency virus type 1 group M subtype B, UniProt P04585)
T1 construct: Purified HIV-1 protease was obtained as described above; made in house; host or cells: E. coli K12 L507/pHP10D (NRRL B-18560)
Assay: biochemical
Format: biochemical
Conditions: read-out: Fluorescence Assay IC50 (converted)

With `CC(C)(C)NC(=O)c1ccccc1C[C@@H](O)[C@H](Cc1ccccc1)NC(=O)[C@@H](CC(=O)OCc1ccccc1)NS(C)(=O)=O` [Example 8A, [2R-(2R*,3S*, 6R*)]-N-t-butyl-2-[2-hydroxy-3-phenylmethyl-4-aza-5-oxo-6-N(methylsulfonyl)amino-7-benzyloxycarbonyl]heptyl benzamide] the IC50 was 3.69 nM.
For `CC(=O)N[C@H](CSCc1ccccc1)C(=O)N[C@@H](Cc1ccccc1)[C@H](O)Cc1ccccc1C(=O)NC(C)(C)C` [Example 18A, [2R-(2R*, 3S*, 6S*)]-N-t-Butyl-2-[2-hydroxy-3-phenylmethyl-4-aza-5-oxo-6-N (ethanoyl)amino-7-benzylthio]heptyl benzamide], the IC50 was 12.9 nM.
